Data reported in PMC3967213, “Cyclic Marinopyrrole Derivatives as Disruptors of Mcl-1 and Bcl-xL Binding to Bim” (Marine Drugs, 2014).
Entries after “also recorded” stand apart in the source; their conditions may differ. Where two headings read alike, the source gives them in different places.

Experiments:
[1] = target: GST-Bcl-xL / biotinylated Bim BH3 peptide (Homo sapiens, UniProt Q07817); test: ELISA, disruption of Bcl-xL binding to Bim; conditions: for fold potency relative to 1 against Bcl-xL/Bim: compared with 1; for IC50: 10 nM GST-Bcl-xL, 40 nM biotinylated Bim BH3 peptide, read-out: IC50 against Bcl-xL/Bim binding
Protocol: (§1) ELISAs were performed using a similar procedure as previously described. Briefly, 40 nM of biotinylated Bim BH3 peptide (Biomatik, Wilmington, DE, USA) in SuperBlock blocking buffer (Thermo Scientific Pierce, Rockford, IL, USA) was incubated in high-binding capacity streptavidin-coated plates (Thermo Scientific Pierce, Rockford, IL, USA) for 2 h. Compounds were diluted in 120 µL of PBS containing 10 nM of GST-Mcl-1 or GST-Bcl-xL in 1.5-mL tubes for 15 min. Wells were washed with wash buffer (PBS containing 0.05% Tween-20) and then 100 µL of the compound/GST-protein mixture was transferred to the wells. The plates were incubated for 2 h, and then, the wells were washed with wash buffer. HRP-conjugated anti-GST antibody (Bethyl Laboratories, Montgomery, TX, USA) was diluted 1:2000 in SuperBlock, and 100 µL were transferred to each well. The plate was incubated for 1 h, and then, the wells were washed with wash buffer followed by PBS. One hundred microliters of SureBlue TMB Microwell Peroxidase Substrate (VWR International, Radnor, PA, USA) was added to each well, and the plates were developed for 5–10 min. One hundred microliters of 1 N HCl was added to each well to stop the reaction, and the absorbance was read at 450 nm using a µQuant plate reader (Bio-Tek Instruments, Winooski, VT, USA).

[2] = target: GST-Mcl-1 / biotinylated Bim BH3 peptide (Homo sapiens, UniProt Q07820); test: ELISA, disruption of Mcl-1 binding to Bim; conditions: for fold potency relative to 1 against Mcl-1/Bim: compared with 1
Protocol: as §1

[3] = system: Mcl-1, Bim and caspase 3 in MDA-MB-468 cells; test: Western blotting after treatment of intact human breast cancer cells; type: cell-based; conditions: 10 μM for 16 h

GST-Mcl-1 / biotinylated Bim BH3 peptide, sequence (Q07820 whole entry): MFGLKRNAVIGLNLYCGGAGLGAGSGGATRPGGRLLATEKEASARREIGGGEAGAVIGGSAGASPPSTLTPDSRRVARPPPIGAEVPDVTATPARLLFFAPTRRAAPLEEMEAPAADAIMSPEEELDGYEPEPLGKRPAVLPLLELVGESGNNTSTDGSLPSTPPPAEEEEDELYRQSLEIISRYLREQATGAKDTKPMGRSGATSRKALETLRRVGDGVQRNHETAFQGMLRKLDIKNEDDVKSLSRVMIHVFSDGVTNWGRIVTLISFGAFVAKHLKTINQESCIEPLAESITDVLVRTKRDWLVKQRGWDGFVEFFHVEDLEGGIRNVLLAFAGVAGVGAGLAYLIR
GST-Bcl-xL / biotinylated Bim BH3 peptide, sequence (Q07817 whole entry): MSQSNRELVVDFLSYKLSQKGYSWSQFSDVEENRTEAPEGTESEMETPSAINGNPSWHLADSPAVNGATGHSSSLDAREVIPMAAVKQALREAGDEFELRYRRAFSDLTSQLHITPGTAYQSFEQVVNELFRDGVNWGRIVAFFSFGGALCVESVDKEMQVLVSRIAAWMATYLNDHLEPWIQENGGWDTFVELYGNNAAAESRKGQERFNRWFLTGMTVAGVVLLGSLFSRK

SMILES | cleavage of caspase 3 [3] | levels of Mcl-1 and Bim [3] | activity against Mcl-1/Bim (in words) ([2]; ELISA) | further results
COC(=O)c1ccc(C(=O)c2cc(Cl)c3n2-c2c([nH]c(Cl)c2Cl)C(=O)c2ccc(C(=O)OC)cc2O3)c(O)c1 [Compound 4, Methyl-2,3,7-trichloro-5-(2-hydroxy-4-(methoxycarbonyl)benzoyl)-13-oxo-1,13-dihydrobenzo[g]-dipyrrolo[2,1-b:3′,2′-d][1,3]oxazocine-10-carboxylate] | – | – | – | fold potency relative to 1 against Bcl-xL/Bim [1]: seven-fold more potent; fold potency relative to 1 against Mcl-1/Bim ([2]; ELISA): two-fold more potent
O=C1c2ccc(OS(=O)(=O)C(F)(F)F)cc2Oc2c(Cl)cc(C(=O)c3ccc(OS(=O)(=O)C(F)(F)F)cc3O)n2-c2c1[nH]c(Cl)c2Cl [Compound 3, 3-Hydroxy-4-(2,3,7-trichloro-13-oxo-10-(((trifluoromethyl)sulfonyl)oxy)-1,13 dihydrobenzo[g]di-pyrrolo[2,1-b:3′,2′-d][1,3]oxazocine-5-carbonyl)phenyl trifluoromethanesulfonate] | – | – | – | fold potency relative to 1 against Bcl-xL/Bim [1]: seven-fold higher potency; fold potency relative to 1 against Mcl-1/Bim ([2]; ELISA): six
CCOP(=O)(OCC)c1ccc(C(=O)c2[nH]c(Cl)c(Cl)c2-n2c(C(=O)c3ccc(P(=O)(OCC)OCC)cc3O)cc(Cl)c2Cl)c(O)c1 [Compound 5a, tetraethyl((4,4′,5,5′-tetrachloro-1′H-[1,3′-bipyrrole]-2,2′-dicarbonyl)bis(3-hydroxy-4,1-phenylene))bis(phosphonate)] | little effect | little effect | showed activity | IC50 [1]: > 100 µM
COC(=O)c1ccc(C(=O)c2[nH]c(Cl)c(Cl)c2-n2c(C(=O)c3ccc(C(=O)OC)cc3O)cc(Cl)c2Cl)c(O)c1 [Compound 4a, dimethyl-4,4′-(4,4′,5,5′-tetrachloro-1′H-[1,3′-bipyrrole]-2,2′-dicarbonyl)bis(3-hydroxybenzoate)] | cleavage of caspase 3 | significant decrease | showed activity | –
O=C(c1ccccc1O)c1[nH]c(Cl)c(Cl)c1-n1c(C(=O)c2ccccc2O)cc(Cl)c1Cl (racemic) [Compound 1, (±)-marinopyrrole A, reference compound] | cleave caspase 3 | able to decrease | – | IC50 [2]: 8.9 µM
O=C(c1ccc(P(=O)(O)O)cc1O)c1[nH]c(Cl)c(Cl)c1-n1c(C(=O)c2ccc(P(=O)(O)O)cc2O)cc(Cl)c1Cl [Compound 8a, ((4,4′,5,5′-Tetrachloro-1′H-[1,3′-bipyrrole]-2,2′-dicarbonyl)bis(3-hydroxy-4,1-phenylene))diphosphonic acid] | little effect | little effect | slightly less potent than 1; also recorded: less active | activity against Bcl-xL/Bim (in words) [1]: less active
CCOP(=O)(OCC)c1ccc(C(=O)c2cc(Cl)c3n2-c2c([nH]c(Cl)c2Cl)C(=O)c2ccc(P(=O)(OCC)OCC)cc2O3)c(O)c1 [Compound 5, 3-Hydroxy-4-(2,3,7-trichloro-13-oxo-10-(diethylphosphonyl)-1,13-dihydrobenzo[g]dipyrrolo[2,1-b:3′,2′-d][1,3]oxazocine-5-carbonyl)diethyl phosphonate] | – | – | – | IC50 [1]: > 100 µM; IC50 ([2]; ELISA, 10 nM GST-Mcl-1, 40 nM biotinylated Bim BH3 peptide, read-out: IC50 to disrupt the binding of Mcl-1 to Bim): > 100 µM
O=C(O)c1ccc(C(=O)c2[nH]c(Cl)c(Cl)c2-n2c(C(=O)c3ccc(C(=O)O)cc3O)cc(Cl)c2Cl)c(O)c1 [Compound 7a, 4,4′-(4,4′,5,5′-Tetrachloro-1′H-[1,3′-bipyrrole]-2,2′-dicarbonyl)bis(3-hydroxybenzoic acid)] | little caspase 3 cleavage | did not decrease | lower activity than 1; also recorded: less active | activity against Bcl-xL/Bim (in words) [1]: little activity; also recorded: less active; melting point: 190.5 to 192 °C
